Results published in the METLIN SMRT retention time set (Domingo-Almenara et al. 2019).

Experiment: gradient 5% acetonitrile 3 min, to 50% in 2 min, to 85% in 15 min, held 3 min, 100 µL/min
Conditions: column: Zorbax Extend-C18 2.1 x 50 mm; eluents: water / acetonitrile, 0.1% formic acid
Summary of the method: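 Standards, all pure, were combined into mixtures of ~100 molecules and run at 100 μL/min on a Zorbax Extend-C18 column (2.1 × 50 mm, 1.8 μm) with water and acetonitrile, each containing 0.1% formic acid. A coupled quadrupole time-of-flight mass spectrometer operated in positive and negative ionization mode. Retention time values come from computationally picked adduct peaks, each inspected manually.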

Structure (SMILES) | RP-LC retention time [s]
Cc1sc2ccn(C)c(=O)c2c1C(=O)NCc1ccc(N2CCOCC2)cc1 | 647
CC(C)N1C(=O)c2cccnc2Sc2cc(NC(=O)c3ccc4c(c3)OCO4)ccc21 | 878
CC1=NS(=O)(=O)N(C)C=C1C(=O)OCCOc1ccccc1 | 921
CCOc1ccc(NC(=O)Cn2c(C)nc3c(sc4nc(-c5ccccc5)ccc43)c2=O)cc1 | 1070
CCOC(=O)c1nc(Nc2ccc(OCC)cc2)c2ccccc2n1 | 806
O=C(CN1C(=O)COc2ccc(C(=O)N3CCCCC3)cc21)N1CCc2ccccc2C1 | 788
CCC[C@H](Nc1nc(-c2ccc(NC(=O)NCC)c(OC)c2)ncc1C)c1cccnc1 | 666
CCn1c(=O)c(C)nc2cc(-c3noc(-c4cccc(Cl)c4)n3)ccc21 | 1220
COc1ccc(-c2nnc(Cc3nc(-c4cccc(F)c4)no3)o2)cc1OC | 911
CCCN1C(=O)COc2ccc(-c3noc(-c4ccc(OC)cc4C)n3)cc21 | 1320
Cc1ccc2c(c1)OCC(=O)N2Cc1nc(-c2cccc(Cl)c2)no1 | 1160
Cc1ccc(CNC(=O)c2cc3sc(C)c(CN4CCOCC4)c3[nH]2)o1 | 656
O=C(NCCc1cccs1)c1ccc2nc(Cc3ccccc3)oc2c1 | 949
Cc1ccc(NC(=O)CCCN2C(=O)COc3ccc(C)cc32)c(C)c1 | 929
Cc1cccc(NC(=O)CN2C(=O)CCS(=O)(=O)c3ccccc32)c1C | 760
Cn1cnc(S(=O)(=O)N2CCC(c3noc(COCc4ccccc4)n3)C2)c1 (stereo not given) | 761
O=C1COc2cc(Cl)ccc2N1Cc1nc(-c2ccccc2)no1 | 1060
Cn1c(=O)c(SCC(=O)NC2CCN(Cc3ccccc3)CC2)nc2ccccc21 | 624
Cc1ccc(-n2cc(C(=O)N3CCSCC3)nn2)cc1C | 852
CNC(=O)c1ccc(Nc2c(-c3ccc(OC)c(OC)c3)nc3cnccn23)cc1 | 606
O=C(Nc1ccc2c(c1)OCO2)N1CCC(n2c(-c3ccco3)nc3cccnc32)C1 (stereo not given) | 726
CC(C)(C)NC(=O)NC1CCN(C(=O)C2CC2)C1 (stereo not given) | 610
Cc1nc(-c2noc(-c3cccnc3)n2)cn1CC(=O)Nc1ccc(F)cc1 | 687

Structure (SMILES) | RP-LC retention time [s]
CCc1cc(C(=O)Nc2ccc(C(=O)OC)cc2)nc2cc(-c3ccco3)nn12 | 1200
O=C(CN1C(=O)NC(c2ccc(Cl)cc2)C2=C1COC2=O)Nc1ccc(C(F)(F)F)cc1 (stereo not given) | 895
Cc1cccc(NC(=O)Cn2c(=O)n(-c3ccccc3)c3ncccc32)c1C | 832
Cc1ccc(CNC(=O)c2ccc(NC(=O)C3CCC3)cc2N2CCOCC2)o1 | 818
Cc1cc(C)c(S(=O)(=O)NCCn2c(C)cnc2C2CCC2)cc1C | 696
N#Cc1c(N)nc(SCC(=O)c2ccc(Br)cc2)c(C#N)c1-c1ccccc1 | 997
Cc1ccc(OCC(=O)NCc2ccc(F)cc2)nn1 | 607
COc1cccc(NC(=O)CN2C(=O)NC3(CCC(C)CC3)C2=O)c1 (stereo not given) | 789
COc1ccc2nc(NC(=O)CCCN3C(=O)C4C5C=CC(C5)C4C3=O)sc2c1 (stereo not given) | 817
CN1C(=O)c2cccnc2Sc2cc(NC(=O)Cc3cccc(F)c3)ccc21 | 784
CCN(CC)c1ncnc2c(-c3ccccc3)cn(CC(=O)NC(C)C)c12 | 686
Cc1ccc(Sc2nccnc2N2CCCC(C(=O)NCc3ccc(F)cc3)C2)cc1 (stereo not given) | 1100
CCCNC(=O)c1cn(-c2cc(-c3nc(C(C)C)no3)ccn2)cn1 | 860
CNC(=O)c1csc(N2CCCC2)n1 | 671
CCOc1ccccc1NS(=O)(=O)c1cn(CC(C)C)c2ncccc12 | 1030
O=C(C1CCC(=O)N1S(=O)(=O)c1ccccc1)N1CCN(C2CCCCC2)CC1 (stereo not given) | 619
CCOc1ccccc1NS(=O)(=O)c1ccccc1-c1nc(-c2ccc(F)cc2)no1 | 1150
COc1ccc(-c2nc(NCCC3=CCCCC3)c3ccccc3n2)cc1 | 933
CC(C)NC(=O)C1CCCN(c2nc3ncn(CC(=O)Nc4ccc(C(C)C)cc4)c(=O)c3s2)C1 (stereo not given) | 785
Cc1noc(COC2CCN(C(=O)c3ccc4c(c3)OCO4)CC2)n1 | 702
CCn1nccc1-c1cccc(-c2noc(CNC(=O)Cc3ccc(Cl)cc3)n2)c1 | 922
CC(C)Cn1cc(CCNS(=O)(=O)Cc2cccc(Cl)c2)c2cccnc21 | 969
